Tested on: human peripheral blood cells
Assay: Immunostimulant activity: human lymphocyte proliferation revealed by BrdU labelling
Format: cell-based
Details: for % stimulation relative to the control: 3 days of culture, BrdU labelling
Procedure: The immunostimulant activity is tested in the following way: human peripheral blood cells are cultured in the presence of an RPMI-type culture medium supplemented with L-glutamine (2 mM), penicillin/streptomycin (50 μg/50 IU/ml) and foetal calf serum (10%). The C-glycoside derivatives are added at various concentrations (10 to 0.05 mM), as is phyto-haemagglutinin (PHA at 5 […]), a positive control for lymphocyte proliferation.

With `CC(=O)C[C@@H]1O[C@H](CO)[C@H](O)[C@H](O)[C@H]1O` [Compound 1, 1-(C-β-galactopyranosyl)propan-2-one] the “% stimulation relative to the control” value (0.05 mM) was 91%, the “% stimulation relative to the control” value (0.1 mM) was 89% and the “% stimulation relative to the control” value (0.5 mM) was 130%. For the same compound, the “% stimulation relative to the control” value (1 mM) was 138%, the “% stimulation relative to the control” value (5 mM) was 261% and the “% stimulation relative to the control” value (10 mM) was 271%. The “human lymphocyte proliferation (result in words)” value (all the concentrations tested (10 to 0.05 mM)) was “tendency to stimulate human lymphocyte proliferation at all the concentrations tested”.
